Test results from paper PMC7764606 (Cancers, 2020).
Like-named read-outs stand apart in the source and are kept apart here.

What was measured:
recombinant AKR1C3 = biological target: T1, recombinant AKR1C3 (Homo sapiens, UniProt P42330); assay: Reduction of Dau by recombinant AKR1C3 (UHPLC detection of Dau-ol); type: biochemical; conditions: for reduction of AKR1C3 activity (Dau reduction): Dau 500 µM, relative to DMSO; for Ki: read-out: Ki^app (Morrison equation for tight-binding inhibitors)
T1 construct: made in house; host or cells: Escherichia coli
T1 sequence (P42330 1-323): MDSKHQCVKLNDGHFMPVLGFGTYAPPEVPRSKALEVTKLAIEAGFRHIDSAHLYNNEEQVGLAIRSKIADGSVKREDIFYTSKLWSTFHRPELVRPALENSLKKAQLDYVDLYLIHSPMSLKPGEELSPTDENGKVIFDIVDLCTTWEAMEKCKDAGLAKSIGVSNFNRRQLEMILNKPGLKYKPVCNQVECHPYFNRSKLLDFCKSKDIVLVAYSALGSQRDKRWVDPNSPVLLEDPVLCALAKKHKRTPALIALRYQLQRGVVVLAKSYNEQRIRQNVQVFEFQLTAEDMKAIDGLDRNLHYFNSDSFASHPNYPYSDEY
Method: (§1) Human recombinant CREs (CBR1, AKR1A1, 1B1, 1B10, 7A2, and 1C3) were produced by an Escherichia coli expression system as per methods described previously. For the inhibitory assay, each recombinant enzyme, CBR1 (1 µg), AKR1A1 (1 µg), AKR1B1 (5 µg), AKR1B10 (5 µg), AKR7A2 (3 µg), or AKR1C3 (1.5 µg) was incubated with BTK inhibitors at different concentrations (10 and 50 µM) and the substrate Dau (500 µM). For analysis using the Lineweaver-Burk plot, 1.5 µg of recombinant AKR1C3 was incubated with DMSO or BTK inhibitors (1, 5, and 10 µM) and Dau (200, 400, 600, 800, 1000, and 2000 µM). […] The incubations and further metabolite detection were further performed by using ultra-high-performance liquid chromatography (UHPLC) as per methods described previously.

recombinant AKR1B10 = test system: T2, recombinant AKR1B10; assay: Reduction of Dau by recombinant AKR1B10 (UHPLC detection of Dau-ol); type: biochemical, Human; conditions: Dau 500 µM, relative to DMSO
T2 construct: made in house; host or cells: Escherichia coli
Method: as §1

[1] = test system: T3, AKR1C3 in HCT116-C3 cells; assay: Dau metabolism to Dau-ol in HCT116 cells transiently overexpressing AKR1C3; type: cell-based, human; conditions: 5 h
T3 construct: expressed in transfected cells; host or cells: HCT116
Method: (§2) HCT116 cells were seeded (1.25 × 10^5 cells/well) in 24-well plates and cultured for 24 h. For the transient expression of the recombinant human AKR1C3, the cells were transfected with a pCI_AKR1C3 or empty pCI plasmid as control (previously described in a study by Hofman et al.) according to the manufacturer’s instructions (jetPRIME® Transfection Reagent; Polyplus Transfection®, Illkirch, France). For each 24-well plate, a mixture of 0.75 µL of the jetPRIME® Transfection Reagent and 0.25 µg of plasmid was incubated for 10 min at room temperature. Then, polyplexes were added to the HCT116 cells with 0.5 mL of fresh DMEM supplemented with 10% FBS and incubated for 24 h (37 °C, 5% CO2). The expression of recombinant AKR1C3 was verified by western blotting as per methods described previously.
After transfection of HCT116 cells or seeding of A549 cells (25 × 10^3 cells/well) in 24-well plates for 24 h, the medium was harvested and replaced with DMEM supplemented with 10% FBS containing 1 µM daunorubicin, with or without increasing concentrations (1, 5, and 10 μM) of BTK inhibitors. Cells were incubated (37 °C, 5% CO2) for 2.5 and 5 h (transfected HCT116) or only 5 h (A549). Then, the medium was collected and the cells were lysed in lysis buffer (25 mM Tris, 150 mM NaCl, and 1% Triton X-100, pH 7.8) for 15 min at room temperature. The collected medium was combined with cell lysate for further extraction and analysis of metabolites, as per methods described previously.

HCT116-EV cells = assay: MTT cell viability, HCT116-EV cells (incl. Chou-Talalay analysis); type: cell-based, human
Method: as §2
(§3) Twenty-four hours prior to the experiment, transfected HCT116 cells (8 × 10^3 cells/well) or A549 cells (5 × 10^3 cells/well) were seeded in 96-well plates. The cell culture medium was replaced with fresh medium containing increasing amounts of Dau (final concentrations: 0.01, 0.05, 0.1, 0.25, 0.5, 0.75, 1, and 10 µM) with or without BTK inhibitors (final concentrations: 1, 5, and 10 µM). After 72 h of incubation under standard conditions (37 °C, 5% CO2), cell viability was assessed by MTT (Sigma-Aldrich, Prague, Czech Republic) assay. For this, 50 µL of the MTT solution (3 mg/mL) was added to each well and incubated for 30 min. The supernatant was collected, and the cell monolayers were dissolved in 100 µL of DMSO. The absorbance was measured at 570 and 690 nm by a microplate reader Infinite M200 (Tecan, Salzburg, Austria), and the background values at 690 nm were subtracted from the absorbance obtained at 570 nm. The half-maximal inhibitory concentrations (IC50) were calculated using GraphPad Prism 8.1.2. The drug combination pharmacodynamics were determined by the Chou-Talalay method using the CompuSyn ver. 3.0.1 software (ComboSyn Inc., Paramus, NJ, USA).

A549 cells = assay: MTT cell viability, A549 cells (incl. Chou-Talalay analysis); type: cell-based, human
Method: as §3

[2] = test system: AKR1C3 expression in A549 cells; assay: AKR1C3 protein levels in A549 cells by western blotting; type: cell-based, human; conditions: 1, 5 and 10 µM, 72 h, western blot relative to β-actin
Method: A549 cells were incubated with DMSO or BTK inhibitors (1, 5, and 10 µM) for 72 h, and then total protein was extracted for analysis of AKR1C3 expression by western blotting (WB) as per methods described previously. A representative WB is shown for IBR (A) and ACA (B) incubations, and bars represent AKR1C3 protein levels as determined by densitometry relative to β-actin (n = 3, mean ± SD). Uncropped images from WB are available in Figure S1 in the Supplementary Materials. On the other hand, HCT116-EV and HCT116-C3 cells were treated with increasing concentrations of IBR (C) and ACA (D) for 72 h, and their viability was assessed by MTT assay. Graphs represent a comparison of the dose-response curves for percentages of cell viability in each cell line (n = 6, mean ± SD).

[3] = single oral dose of 140 mg; cited from earlier work
[4] = BTK-inhibitor 5 µM + Dau 0.25 µM
[5] = BTK-inhibitor 5 µM + Dau 0.50 µM

`COc1cccc2c1C(=O)c1c(O)c3c(c(O)c1C2=O)C[C@@](O)(C(C)=O)C[C@@H]3O[C@H]1C[C@H](N)[C@H](O)[C@H](C)O1` [Dau, daunorubicin] gave a Km (recombinant AKR1C3; substrate Dau, recombinant AKR1C3, read-out: Km used in the Morrison equation) of 387 ± 36 µM.

In the case of `C=CC(=O)N1CCC[C@@H](n2nc(-c3ccc(Oc4ccccc4)cc3)c3c(N)ncnc32)C1` [Ibrutinib, ibrutinib], the “reduction of AKR1C3 activity (Dau reduction)” value (recombinant AKR1C3; 10 µM BTK inhibitor) is reported as 92.17% ± 3.43%, the “reduction of AKR1C3 activity (Dau reduction)” value (recombinant AKR1C3; 50 µM BTK inhibitor) is reported as 96.41% ± 1.48% and the Ki (recombinant AKR1C3; AKR1C3 0.005 mg/mL (0.135 μM)) is reported as 312 nM. For the same molecule, the Ki (recombinant AKR1C3; AKR1C3 0.015 mg/mL (0.405 μM)) was 332 nM, the Ki (recombinant AKR1C3; AKR1C3 0.030 mg/mL (0.811 μM)) was 354 nM and the “mode of inhibition (Lineweaver-Burk plot)” value (recombinant AKR1C3; recombinant AKR1C3 with increasing Dau) was “non-competitive/mixed”. For the same molecule, the “inhibition of AKR1B10 activity (Dau reduction)” value (recombinant AKR1B10; 10 µM BTK inhibitor) was 48.18% ± 2.10%, the “inhibition of AKR1B10 activity (Dau reduction)” value (recombinant AKR1B10; 50 µM BTK inhibitor) was 74.97% ± 0.87% and the “decrease in AKR1C3 activity (Dau to Dau-ol)” value (“decrease in AKR1C3 activity” for short) ([1]; 1 µM BTK inhibitor + 1 µM Dau) was 29.40% ± 11.55%. For the same molecule, the “decrease in AKR1C3 activity” value ([1]; 5 µM BTK inhibitor + 1 µM Dau) was 45.16% ± 0.86%, the “decrease in AKR1C3 activity” value ([1]; 10 µM BTK inhibitor + 1 µM Dau) was 60.72% ± 6% and the “Fraction affected (Fa %)” value (HCT116-EV cells; [4]) was 58.13 ± 12.2%. For the same molecule, the “Fraction affected (Fa %)” value (HCT116-EV cells; [5]) was 77.56 ± 6.90%, the “Fraction affected (Fa %)” value (HCT116-EV cells; BTK-inhibitor 10 µM + Dau 0.25 µM) was 58.56 ± 7.79% and the “Fraction affected (Fa %)” value (HCT116-EV cells; BTK-inhibitor 10 µM + Dau 0.50 µM) was 81.92 ± 4.25%. The IC50 (HCT116-EV cells; Homo sapiens, 72 h MTT, read-out: IC50 of BTK inhibitor alone (cell viability)) was 17000 nM, the “Fraction affected (Fa %)” value (A549 cells; BTK-inhibitor 1 µM + Dau 0.01 µM) was 21.92 ± 2.37% and the “Fraction affected (Fa %)” value (A549 cells; BTK-inhibitor 1 µM + Dau 0.25 µM) was 43.16 ± 2.59%. For the same molecule, the “Fraction affected (Fa %)” value (A549 cells; BTK-inhibitor 1 µM + Dau 0.50 µM) was 71.16 ± 6.46%, the “Fraction affected (Fa %)” value (A549 cells; BTK-inhibitor 1 µM + Dau 0.75 µM) was 86.63 ± 0.72% and the “Fraction affected (Fa %)” value (A549 cells; BTK-inhibitor 1 µM + Dau 1.00 µM) was 91.12 ± 0.72%. The “Fraction affected (Fa %)” value (A549 cells; BTK-inhibitor 5 µM + Dau 0.01 µM) was 33.76 ± 1.79%, the “Fraction affected (Fa %)” value (A549 cells; [4]) was 54.13 ± 5.98% and the “Fraction affected (Fa %)” value (A549 cells; [5]) was 85.67 ± 2.02%. The “Fraction affected (Fa %)” value (A549 cells; BTK-inhibitor 5 µM + Dau 0.75 µM) was 91.76 ± 0.78%, the “Fraction affected (Fa %)” value (A549 cells; BTK-inhibitor 5 µM + Dau 1.00 µM) was 94.00 ± 0.28% and the “effect on expression (protein levels) of AKR1C3” value [2] was “negligible or absence of effects”. The “mean Cmax” value [3] was 37.1 ng/mL.
